According to PubChem BioAssay (NCI):
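48-hour exposure; five concentrations; linearly interpolated endpoints. TGI denotes the concentration required for complete inhibition of growth.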

Legend:
Assay in all cases: DTP human tumour cell line panel, 48 h
HS 578T breast = test system: HS 578T breast
MDA-N = test system: MDA-N
HCT-116 colon = test system: HCT-116 colon
UO-31 renal = test system: UO-31 renal
SK-MEL-5 melanoma = test system: SK-MEL-5 melanoma
BT-549 breast = test system: BT-549 breast
NCI-H522 lung = test system: NCI-H522 lung
DU-145 prostate = test system: DU-145 prostate
HT29 colon = test system: HT29 colon
MCF7 breast = test system: MCF7 breast
NCI-H460 lung = test system: NCI-H460 lung
CAKI-1 renal = test system: CAKI-1 renal
SF-268 CNS = test system: SF-268 CNS
U251 CNS = test system: U251 CNS
IGROV1 ovarian = test system: IGROV1 ovarian
HL-60(TB) leukemia = test system: HL-60(TB) leukemia
A498 renal = test system: A498 renal
EKVX NSCLC = test system: EKVX NSCLC
OVCAR-5 ovarian = test system: OVCAR-5 ovarian
SF-539 CNS = test system: SF-539 CNS
PC-3 prostate = test system: PC-3 prostate
KM12 colon = test system: KM12 colon
SK-MEL-28 melanoma = test system: SK-MEL-28 melanoma
SNB-19 CNS = test system: SNB-19 CNS
MDA-MB-435 = test system: MDA-MB-435
M14 melanoma = test system: M14 melanoma
UACC-257 melanoma = test system: UACC-257 melanoma
786-0 renal = test system: 786-0 renal
MOLT-4 leukemia = test system: MOLT-4 leukemia
NCI/ADR-RES ovarian = test system: NCI/ADR-RES ovarian
SW-620 colon = test system: SW-620 colon
MALME-3M melanoma = test system: MALME-3M melanoma
CCRF-CEM leukemia = test system: CCRF-CEM leukemia
OVCAR-8 ovarian = test system: OVCAR-8 ovarian
SR leukemia = test system: SR leukemia
T-47D breast = test system: T-47D breast
SF-295 CNS = test system: SF-295 CNS
NCI-H23 lung = test system: NCI-H23 lung
SK-OV-3 ovarian = test system: SK-OV-3 ovarian
SK-MEL-2 melanoma = test system: SK-MEL-2 melanoma
A549 NSCLC = test system: A549 NSCLC
COLO 205 colon = test system: COLO 205 colon
K-562 leukemia = test system: K-562 leukemia
OVCAR-4 ovarian = test system: OVCAR-4 ovarian
LOX IMVI melanoma = test system: LOX IMVI melanoma
RPMI-8226 leukemia = test system: RPMI-8226 leukemia
HOP-62 NSCLC = test system: HOP-62 NSCLC
HCT-15 colon = test system: HCT-15 colon
OVCAR-3 ovarian = test system: OVCAR-3 ovarian
HCC-2998 colon = test system: HCC-2998 colon
ACHN renal = test system: ACHN renal
UACC-62 melanoma = test system: UACC-62 melanoma
TK-10 renal = test system: TK-10 renal
NCI-H226 lung = test system: NCI-H226 lung
SN12C renal = test system: SN12C renal
SNB-75 CNS = test system: SNB-75 CNS
RXF 393 renal = test system: RXF 393 renal
MDA-MB-231 breast = test system: MDA-MB-231 breast

## S=C(Nc1ccccc1)c1ccc(CN2CCCCC2)s1
HS 578T breast
  TGI: 60.5 µM
MDA-N
  TGI: 33.4 µM
HCT-116 colon
  TGI: 34.5 µM
UO-31 renal
  TGI: 30.6 µM
SK-MEL-5 melanoma
  TGI: 31.2 µM
BT-549 breast
  TGI: 61.3 µM
NCI-H522 lung
  TGI: 35.4 µM
DU-145 prostate
  TGI: > 100 µM
HT29 colon
  TGI: 24.1 µM
MCF7 breast
  TGI: 35.7 µM
NCI-H460 lung
  TGI: 45.4 µM
CAKI-1 renal
  TGI: 48.8 µM
SF-268 CNS
  TGI: > 100 µM
U251 CNS
  TGI: 44.2 µM
IGROV1 ovarian
  TGI: 48.9 µM
HL-60(TB) leukemia
  TGI: 34.5 µM
A498 renal
  TGI: 37.4 µM
EKVX NSCLC
  TGI: > 100 µM
OVCAR-5 ovarian
  TGI: 35 µM
SF-539 CNS
  TGI: > 100 µM
PC-3 prostate
  TGI: > 100 µM
KM12 colon
  TGI: 36.9 µM
SK-MEL-28 melanoma
  TGI: 35.3 µM
SNB-19 CNS
  TGI: 44 µM
MDA-MB-435
  TGI: 35.8 µM
M14 melanoma
  TGI: 32.9 µM
UACC-257 melanoma
  TGI: 46.2 µM
786-0 renal
  TGI: 34.2 µM
MOLT-4 leukemia
  TGI: 71.4 µM
NCI/ADR-RES ovarian
  TGI: > 100 µM
SW-620 colon
  TGI: 44.7 µM
MALME-3M melanoma
  TGI: 46.6 µM
CCRF-CEM leukemia
  TGI: 41.3 µM
OVCAR-8 ovarian
  TGI: 39.7 µM
SR leukemia
  TGI: 51.5 µM
T-47D breast
  TGI: 85.3 µM
SF-295 CNS
  TGI: 37.5 µM
NCI-H23 lung
  TGI: 42.8 µM
SK-OV-3 ovarian
  TGI: 36.9 µM
SK-MEL-2 melanoma
  TGI: 43.5 µM
A549 NSCLC
  TGI: 98.3 µM
COLO 205 colon
  TGI: 36.4 µM
K-562 leukemia
  TGI: 43.6 µM
OVCAR-4 ovarian
  TGI: > 100 µM
LOX IMVI melanoma
  TGI: 32.5 µM
RPMI-8226 leukemia
  TGI: 70.4 µM
HOP-62 NSCLC
  TGI: 64.8 µM
HCT-15 colon
  TGI: 36.2 µM
OVCAR-3 ovarian
  TGI: > 100 µM
HCC-2998 colon
  TGI: 37.9 µM
ACHN renal
  TGI: > 100 µM
UACC-62 melanoma
  TGI: 37.2 µM

## O=S(=O)(O)c1cc(S(=O)(=O)O)c2c(Nc3ccnc4ccccc34)ccc(S(=O)(=O)O)c2c1
TK-10 renal
  TGI: > 100 µM
HS 578T breast
  TGI: > 100 µM
MDA-N
  TGI: > 100 µM
HCT-116 colon
  TGI: > 100 µM
UO-31 renal
  TGI: > 100 µM
SK-MEL-5 melanoma
  TGI: > 100 µM
BT-549 breast
  TGI: > 100 µM
NCI-H522 lung
  TGI: > 100 µM
NCI-H226 lung
  TGI: > 100 µM
DU-145 prostate
  TGI: > 100 µM
HT29 colon
  TGI: > 100 µM
MCF7 breast
  TGI: > 100 µM
NCI-H460 lung
  TGI: > 100 µM
CAKI-1 renal
  TGI: > 100 µM
SF-268 CNS
  TGI: > 100 µM
U251 CNS
  TGI: > 100 µM
IGROV1 ovarian
  TGI: > 100 µM
HL-60(TB) leukemia
  TGI: > 100 µM
A498 renal
  TGI: > 100 µM
EKVX NSCLC
  TGI: > 100 µM
OVCAR-5 ovarian
  TGI: > 100 µM
SF-539 CNS
  TGI: > 100 µM
PC-3 prostate
  TGI: > 100 µM
KM12 colon
  TGI: > 100 µM
SN12C renal
  TGI: > 100 µM
SK-MEL-28 melanoma
  TGI: > 100 µM
SNB-19 CNS
  TGI: > 100 µM
MDA-MB-435
  TGI: > 100 µM
M14 melanoma
  TGI: > 100 µM
UACC-257 melanoma
  TGI: > 100 µM
786-0 renal
  TGI: > 100 µM
MOLT-4 leukemia
  TGI: > 100 µM
NCI/ADR-RES ovarian
  TGI: > 100 µM
SW-620 colon
  TGI: > 100 µM
MALME-3M melanoma
  TGI: > 100 µM
CCRF-CEM leukemia
  TGI: > 100 µM
OVCAR-8 ovarian
  TGI: > 100 µM
T-47D breast
  TGI: > 100 µM
SF-295 CNS
  TGI: > 100 µM
NCI-H23 lung
  TGI: > 100 µM
SK-OV-3 ovarian
  TGI: > 100 µM
SK-MEL-2 melanoma
  TGI: > 100 µM
A549 NSCLC
  TGI: > 100 µM
SNB-75 CNS
  TGI: > 100 µM
COLO 205 colon
  TGI: > 100 µM
RXF 393 renal
  TGI: > 100 µM
OVCAR-4 ovarian
  TGI: > 100 µM
LOX IMVI melanoma
  TGI: > 100 µM
RPMI-8226 leukemia
  TGI: > 100 µM
HOP-62 NSCLC
  TGI: > 100 µM
HCT-15 colon
  TGI: > 100 µM
OVCAR-3 ovarian
  TGI: > 100 µM
MDA-MB-231 breast
  TGI: > 100 µM
HCC-2998 colon
  TGI: > 100 µM
ACHN renal
  TGI: > 100 µM
UACC-62 melanoma
  TGI: > 100 µM
